Tests used:
[1] = system: HCT116 cells; test: Wound healing assay; assay type: cell-based, human; conditions: 72 h, noncytotoxic concentrations
Procedure: Wound healing assays were carried out as previously described, with some modifications. Cells were grown to 80–90% confluency in 12-well plates, and a wound was created by dragging a plastic pipette tip across the cell surface. The remaining cells were washed three times in saline to remove cell debris before being incubated in serum-free medium and treated with the drug. Using an optical microscope, migrating cells in front of the wound were photographed after 0 and 72 h of incubation (Nikon, TS 100). ImageJ software was used to calculate the wound area (NIH, USA).

[2] = system: HepG2 human hepatocellular carcinoma cells; conditions: HepG2 in monolayers or 3D multicellular cancer spheroids; cited from earlier work
[3] = system: HCT116 cells; test: CRC experimental lung metastasis xenograft model; assay type: in vivo, C. B-17 SCID mice; conditions: 2 mg/kg i.p. every other day for 4 weeks; control 5.0 ± 0.5
Procedure: HCT116 cells (2 × 10^6 cells/100 μl) were injected into the tail vein of each mouse. The animals were then treated intraperitoneally (200 μl/animal) every other day for 4 weeks. […] The animals were euthanized with an anesthetic overdose (thiopental, 100 mg/kg) 1 day after treatment ended, and their lungs were excised and fixed in 4% formaldehyde. The number of lung macrometastases per animal was counted and processed for histological analysis.

[4] = system: HCT116 cells; test: Colony-forming assay; assay type: cell-based, human; conditions: 24, 48, 72 h treatment, 14 days culture
Procedure: To test clonogenic ability, 1000 cells were seeded in 6-well plates with 6 ml of complete medium and incubated with the drug for 24, 48, and 72 h. The medium was then changed to drug-free fresh medium and cultured for a total of 14 days. The cells were then fixed in methanol and stained with 0.5% crystal violet. The number of colonies with more than 50 cells was counted using an optical microscope (Nikon, TS100).

[5] = system: HCT116 cells; test: Protein expression levels by flow cytometry; assay type: cell-based, human; conditions: 10 μM, 24 h
Procedure: Flow cytometry was used to measure protein expression levels using primary antibodies conjugated with specific fluorochromes, as detailed in Table S5. For intracellular protein staining, cells were collected and resuspended in 0.5–1 ml of 4% formaldehyde for 10 min at 37 °C. The tubes were then kept on ice for 1 min and permeabilized for 30 min on ice by slowly adding ice-cold 100% methanol to prechilled cells while gently vortexing to a final concentration of 90% methanol. After washing with incubation buffer (0.5% bovine serum albumin in PBS), antibodies were added and incubated at room temperature for 1 h. Finally, the cells were washed with PBS, and the fluorescence of the cells was measured using flow cytometry.
For cell surface protein staining, cells were washed with incubation buffer (0.5% bovine serum albumin in PBS), and then antibodies were added and incubated for 1 h at room temperature. The cells were then washed with PBS, and cell fluorescence was measured using flow cytometry. To select viable cells for quantification of CD133-positive cells, YO-PRO-1 (Sigma-Aldrich Co.) was used.
For all flow cytometry analyses, cell fluorescence was measured with a BD LSRFortessa cytometer and analyzed by BD FACSDiva Software (BD Biosciences) and FlowJo Software 10 (FlowJo LLC; Ashland, OR, USA). At least 10,000 events were evaluated per sample for intracellular staining, and at least 30,000 events were acquired per sample for cell surface protein staining. FSC-A versus FCS-H and SCC-A versus SCC-H were used to remove the doublets. The analysis excluded cellular debris.

[6] = system: HCT116 cells; test: Trypan blue exclusion assay; assay type: cell-based, human; conditions: 2.5, 5 and 10 μM; 24, 48 and 72 h
Procedure: The trypan blue exclusion assay was used to quantify the number of viable cells. Briefly, 90 μl of the cell suspension plus 10 μl of trypan blue (0.4%) were mixed, and an aliquot was analyzed in a hemocytometer. The number of viable (unstained cells) and nonviable (trypan blue-stained cells) cells was counted using a light microscope.

[7] = system: HCT116 cells; test: Mitochondrial transmembrane potential, rhodamine 123 flow cytometry; assay type: cell-based, human; conditions: 24 h, all concentrations tested
Procedure: To ensure mitochondrial transmembrane potential, the cells were stained with rhodamine 123 (5 µg/ml, Sigma-Aldrich Co.) at 37 °C for 15 min in the dark. The cells were then washed with saline and incubated in saline for 30 min in the dark at 37 °C, and cell fluorescence was determined using flow cytometry.

[8] = system: CR04 (malignant papillary mesothelioma); test: Alamar blue viability of primary cancer cells; assay type: cell-based, human; conditions: primary papilliferous malignant mesothelioma; 25 μg/ml (RXC 31.3 μM, DOX 46 μM); 96 h
Procedure: (§1) The Alamar blue assay was used to determine cell viability as previously described. Cells were seeded into 96-well plates at a density of 7 × 10^3 cells per well for adherent cells or 3 × 10^4 cells per well for suspended cells. The drug was added to each well after 24 h of incubation for adherent cells or immediately for suspended cells and incubated for an additional 72 h. […] Each well received 100 µM resazurin (Sigma-Aldrich Co. St. Louis, MO, United States) four (for cell lines) or 24 (for primary culture) h before the end of the incubation. A SpectraMax 190 Microplate Reader (Molecular Devices, Sunnyvale, CA, USA) was used to measure absorbance at 570 and 600 nm.
(§2) CR03 (metastatic cholangiocarcinoma) CR04 (malignant papillary mesothelioma) […]
(§3) Figure S1. […] Cells were exposed to 25 […]
(§4) measured after 96 h using the Alamar blue assay. The data are presented as the […]
(§5) mean ± S.E.M. of four replicates. * P < 0.05 compared to CTL by one-way ANOVA […]
(§6) followed by Dunnett's multiple comparisons test. […]

[9] = system: CR03 (metastatic cholangiocarcinoma); test: Alamar blue viability of primary cancer cells; assay type: cell-based, human; conditions: 25 μg/ml (RXC 31.3 μM, DOX 46 μM), 96 h
Procedure: as §1, §2, §3, §4, §5, §6

[10] = system: CR01 (colorectal carcinoma); test: Alamar blue viability of primary cancer cells; assay type: cell-based, human; conditions: primary CRC (first listed); 25 μg/ml (RXC 31.3 μM, DOX 46 μM); 96 h
Procedure: as §1, §2, §3, §4, §5, §6

[11] = system: B16-F10; test: Alamar blue cytotoxicity assay; assay type: cell-based, mouse; conditions: 72 h, read-out: IC50 and 95%CI
Procedure: as §1

[12] = system: 4T1; test: Alamar blue cytotoxicity assay; assay type: cell-based, mouse; conditions: 72 h, read-out: IC50 and 95%CI
Procedure: as §1

For cis-[Ru(phen)2(xant)](PF6) [RXC], the cell migration [1] is given as “inhibited cell migration”, the cytotoxicity [2] is given as “potent cytotoxicity” and the “mean number of pulmonary metastatic nodules” value [3] is given as 1.3 ± 0.4. For the same substance, the clonogenic survival [4] was “inhibit the clonogenic survival”, the E-cadherin expression [5] was “increased” and the LC3B expression [5] was “increased”. For the same substance, the “expression level of 4EBP1 (pT36/pT45)” value [5] was “decreased”, the “expression level of Akt1” value [5] was “decreased” and the “expression level of Akt (pS473)” value [5] was “decreased”. The “expression level of Akt (pT308)” value [5] was “no change”, the “expression level of GSK-3β (pS9)” value [5] was “decreased” and the “expression level of NF-κB p65 (pS529)” value [5] was “decreased”. The “expression level of PI3K p85/p55 (pT458/pT199)” value [5] was “no change”, the “expression level of S6 (pS235/pS236)” value [5] was “no change” and the “expression level of elF4E (pS209)” value [5] was “no change”. The “expression level of mTOR (pS2448)” value [5] was “decreased”, the “expression of Hsp90 protein” value [5] was “decreased” and the “levels of PARP cleavage (Asp214)” value [5] was “increased”. The p62/SQSTM1 expression [5] was “decreasing”, the vimentin expression [5] was “decreased” and the “number of viable cells” value [6] was “reduced the number of viable cells”. For the same substance, the mitochondrial transmembrane potential [7] was “mitochondrial depolarization”, the reduced cell viability [8] was 79.6% and the reduced cell viability [9] was 79.2%. It also gave a reduced cell viability [10] of 79.8%, an IC50 [11] of 2.58 µM and an IC50 [12] of 9.1 µM.
